Each structure is given as a SMILES string.

One experiment addresses T1, acetylcholine muscarinic M1 receptor (Homo sapiens, UniProt P11229).
T1 construct: expressed in transfected cells; host or cells: CHOnfat (CHO cells; also called CHOK1/hM1)
T1 sequence (P11229 1-460): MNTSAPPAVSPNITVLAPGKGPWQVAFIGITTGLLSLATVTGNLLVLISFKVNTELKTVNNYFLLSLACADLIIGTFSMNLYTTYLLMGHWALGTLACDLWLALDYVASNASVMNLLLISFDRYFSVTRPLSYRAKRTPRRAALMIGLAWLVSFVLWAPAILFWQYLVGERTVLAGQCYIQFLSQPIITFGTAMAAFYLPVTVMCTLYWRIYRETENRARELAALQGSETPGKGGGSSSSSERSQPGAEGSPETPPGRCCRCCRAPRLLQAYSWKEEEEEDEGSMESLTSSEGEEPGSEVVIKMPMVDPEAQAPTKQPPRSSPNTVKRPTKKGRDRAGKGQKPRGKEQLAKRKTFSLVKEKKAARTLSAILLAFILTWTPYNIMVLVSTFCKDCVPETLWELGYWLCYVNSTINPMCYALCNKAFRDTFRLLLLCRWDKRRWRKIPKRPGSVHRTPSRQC
In words: Muscarinic M1 FLIPR intracellular calcium assay for positive allosteric modulators. In kind it is cell-based.
Conditions: not given
As to the method:
The assay studies the effect of one or several concentrations of test compounds on basal or acetylcholine-stimulated Ca^2+ levels using FLIPR.
Compounds are prepared and subjected to a preincubation period of 4 min. Thereafter, a single EC20 concentration of acetylcholine is added to each well (3 nM final). The intracellular Ca^2+ level of each sample is measured and compared to an acetylcholine control to determine any modulatory activity.
Cells: CHOnfat/hM1, hM2, hM3 or hM4 cells are plated 24 hr before the assay at a density of 18,000 cells/well (100 μL) in a 384 well plate. CHOnfat/hM1 and CHOnfat/hM3 Growth Medium: 90% DMEM (Hi Glucose); 10% HI FBS; 2 mM L-glutamine; 0.1 mM NEAA; Pen-Strep; and 1 mg/ml Geneticin, are added. For M2Gqi5CHOnfat and M4Gqi5CHOnfat cells, an additional 600 ug/ml hygromycin is added.
Equipment: 384 well plate, 120 μL addition plate; 96-well Whatman 2 ml Uniplate Incubator, 37° C., 5% CO2; Skatron EMBLA-384 Plate Washer; Multimek Pipetting System; Genesis Freedom 200 System; Mosquito System; Temo Nanolitre Pipetting System; and FLIPR^384 Fluorometric Imaging Plate Reader System are used.
Buffers. Assay Buffer: Hanks Balanced Salt Solution, with 20 mM Hepes, 2.5 mM Probenecid (Sigma P-8761) first dissolved in 1 N NaOH, 1% Bovine Serum Albumin (Sigma A-9647). Dye Loading Buffer: Assay Buffer plus 1% Fetal Bovine Serum and Fluo-4AM/Pluronic Acid Mixture. 2 mM Fluo-4AM ester stock in DMSO (Molecular Probes F-14202) Concentration of 2 μM in buffer for a final concentration of 1 μM in Assay. 20% Pluronic Acid Solution stock, with concentration of 0.04% in Buffer, 0.02% in Assay.
65 μL of 2 mM Fluo-4AM are mixed with 130 μL of 20% Pluronic Acid. The resulting solution and 650 μL FBS is added to the assay buffer for a total volume of 65 mL. Positive Controls: 4-Br-A23187: 10 mM in DMSO; final concentration 10 μM. Acetylcholine: 10 mM in water, working stock at both 20 μM and 30 μM in assay buffer, final concentration of 10 μM. This is used to check the maximum stimulation of the CHOK1/hM1 cells. 20 μM (2×) acetylcholine is added in the preincubation part of the assay, and the 30 μM (3×) stock is added in the second part. (EC20)Acetylcholine: 10 mM in water, working stock of 9 nM (3×), and final concentration in assay is 3 nM. This is used after the preincubation with test compounds. Addition of the EC20 Acetylcholine to each well with a test compound will ascertain any modulator activity. 24 wells contain 3 nM Acetylcholine alone as a control.
Determining Activity of Putative Compounds:
Screening Plate Compounds are titrated in 96-well plates (columns 2-11), 100% DMSO, started at a concentration of 15 mM (150× stock concentration), and 3-fold serial dilutions using Genesis Freedom200 System. Four 96-well plates are combined into a 384-well plate using Mosquito Nanolitre Pipetting System by transferring 1 μl of serial diluted compounds to each well, and 1 mM acetylcholine (100× stock concentration) were added as a control. Using Temo, 49 μl assay buffer is added to each well of the 384-well plate right before assay.
In a 96-well Whatman 2 ml Uniplate, 9 nM Acetylcholine (3×) is pipetted into wells corresponding to the screening compounds, and into control wells. The 30 μM acetylcholine control (3×) is added into control wells, and the 3× agonist plate is transferred into a 384 well plate.
Cells are washed three times with 100 μL of buffer, leaving 30 μL of buffer in each well. Using Multimek, 30 μL of Dye Loading Buffer is added into each well and incubated at 37° C., 5% CO2 for up to one hr.
After 60 min, the cells are washed three times with 100 μL of buffer, leaving 30 μL of buffer in each well. The cell plate, screening plate, and agonist addition plates are placed on the platform in the FLIPR and the door closed. A signal test to check background fluorescence and basal fluorescence signal is performed. Laser intensity is adjusted if necessary. […]
With `COc1ccc(Cc2cc(C(=O)N[C@H]3CCOC[C@@H]3O)nc3c(F)cccc23)cn1` [Example 19, 8-Fluoro-N-[(3R,4S)-3-hydroxytetrahydro-2H-pyran-4-yl]-4-[(6-methoxypyridin-3-yl)methyl]quinoline-2-carboxamide], the EC50 was determined as 19 nM.

Staying with this experiment, now noted: IP = inflection point calculated from FLIPR values; CHOnfat/hM1 cells; 4 min preincubation, then EC20 acetylcholine (3 nM final); read-out: IP Value.
Regarding `COc1ccc(Cc2cc(C(=O)N[C@H]3CCOC[C@@H]3O)nc3c(F)cccc23)c[n+]1[O-]` [Example 21, 8-Fluoro-N-[(3R,4S)-3-hydroxytetrahydro-2H-pyran-4-yl]-4-[(6-methoxy-1-oxidopyridin-3-yl)methyl]quinoline-2-carboxamide], the EC50 is 210 nM. On the same count and under the same terms, as for `COc1cc(Cc2cc(C(=O)N[C@H]3CCOC[C@@H]3O)nc3ccccc23)ccn1` [Example 13, N-[(3R,4S)-3-Hydroxytetrahydro-2H-pyran-4-yl]-4-[(2-methoxypyridin-4-yl)methyl]quinoline-2-carboxamide], the figure is 46 nM; as for `CSc1ccc(Cc2cc(C(=O)N[C@H]3CCCC[C@@H]3O)nc3ccccc23)cn1` [Example 7, N-[(1S,2S)-2-Hydroxycyclohexyl]-4-{[6-(inethylsulfanyl)pyridin-3-yl]methyl}quinoline-2-carboxamide], 37 nM; as for `COc1ccc(Cc2cc(C(=O)N[C@H]3CCOC[C@@H]3O)nc3ccccc23)cn1` [Example 11, N-[(3R,4S)-3-Hydroxytetrahydro-2H-pyran-4-yl]-4-[(6-methoxypyridin-3-yl)methyl]quinoline-2-carboxamide], 52 nM. On the same count and under the same terms, the same measure for `O=C(N[C@H]1CCOC[C@@H]1O)c1cc(Cc2ccc(C(F)F)nc2)c2cccc(F)c2n1` [Example 17, 4-{[6-(Difluoromethyl)pyridin-3-yl]methyl}-8-fluoro-N-[(3R,4S)-3-hydroxytetrahydro-2H-pyran-4-yl]quinoline-2-carboxamide]: 18 nM; for `COc1cc(Cc2cc(C(=O)N[C@H]3CCOC[C@@H]3O)nc3c(F)cccc23)cc[n+]1[O-]` [Example 23, 8-Fluoro-N-[(3R,4S)-3-hydroxytetrahydro-2H-pyran-4-yl]-4-[(2-methoxy-1-oxidopyridin-4-yl)methyl]quinoline-2-carboxamide]: 411 nM; for `Cn1cc(-c2ccc(Cc3cc(C(=O)N[C@H]4CCCC[C@@H]4O)nc4ccccc34)c[n+]2[O-])cn1` [Example 8, N-[(1S,2S)-2-Hydroxycyclohexyl]-4-{[6-(1-methyl-1H-pyrazol-4-yl)-1-oxidopyridin-3-yl]methyl}quinoline-2-carboxamide]: 21 nM. Same read-out and setting: the same measure for `COc1ccc(C(F)c2cc(C(=O)N[C@H]3CCOC[C@@H]3O)nc3ccccc23)cn1` (stereo partly drawn) [Example 15, 4-[Fluoro(6-methoxypyridin-3-yl)methyl]-N-[(3R,4S)-3-hydroxytetrahydro-2H-pyran-4-yl]quinoline-2-carboxamide hydrate]: 52 nM; for `COc1cc(Cc2cc(C(=O)N[C@H]3CCOC[C@@H]3O)nc3c(F)cccc23)ccn1` [Example 22, 8-Fluoro-N-[(3R,4S)-3-hydroxytetrahydro-2H-pyran-4-yl]-4-[(2-methoxypyridin-4-yl)methyl]quinoline-2-carboxamide]: 27 nM. As for `Cn1cc(-c2ccc(Cc3cc(C(=O)N[C@H]4CCCC[C@@H]4F)nc4ccccc34)cn2)cn1` [Example 9, N-[(1S,2S)-2-Fluorocyclohexyl]-4-{[6-(1-methyl-1H-pyrazol-4-yl)pyridin-3-yl]methyl}quinoline-2-carboxamide], the EC50 was 261 nM. Same read-out and setting: the same measure for `COc1ccc(Cc2cc(C(=O)N[C@H]3CCOC[C@@H]3O)nc3c(F)ccc(F)c23)cn1` [Example 24, 5,8-Difluoro-N-[(3R,4S)-3-hydroxytetrahydro-2H-pyran-4-yl]-4-[(6-methoxypyridin-3-yl)methyl]quinoline-2-carboxamide]: 33 nM; for `O=C(N[C@H]1CCOC[C@@H]1O)c1cc(Cc2ccc(O)nc2)c2cccc(F)c2n1` [Example 20, 8-Fluoro-4-[(6-hydroxypyridin-3-yl)methyl]-N-[(3R,4S)-3-hydroxytetrahydro-2H-pyran-4-yl]quinoline-2-carboxamide]: 65 nM; for `O=C(N[C@H]1CCCC[C@@H]1O)c1cc(Cc2cccnc2)c2ccccc2n1` [Example 6, N-[(1S,2S)-2-Hydroxycyclohexyl]-4-(pyridin-3-ylmethyl)quinoline-2-carboxamide]: 81 nM.

Take `O=C(N[C@H]1CCOC[C@@H]1O)c1cc(Cc2ccc(Cl)nc2)c2cccc(F)c2n1` [Example 16, 4-[(6-Chloropyridin-3-yl)methyl]-8-fluoro-N-[(3R,4S)-3-hydroxytetrahydro-2H-pyran-4-yl]quinoline-2-carboxamide]: the EC50 was 22 nM.

Turning to `O=C(N[C@H]1CCCC[C@@H]1O)c1cc(Cc2ccc(C3CC3)nc2)c2ccccc2n1` [Example 4, 4-[(6-Cyclopropylpyridin-3-yl)methyl]-N-[(1,2)-2-hydroxycyclohexyl]quinoline-2-carboxamide], the EC50 was 39 nM. Still for that read-out and setting: the same measure for `O=C(N[C@H]1CCCC[C@@H]1O)c1cc(Cc2ccc(Cl)nc2)c2ccccc2n1` [Example 1, 4-[(6-Chloropyridin-3-yl)methyl]-N-[(1S,2S)-2-hydroxycyclohexyl]quinoline-2-carboxamide]: 41 nM; for `Cc1ccc(Cc2cc(C(=O)N[C@H]3CCCC[C@@H]3O)nc3ccccc23)cn1` [Example 2, N-[(1S,2S)-2-Hydroxycyclohexyl]-4-[(6-methylpyridin-3-yl)methyl]quinoline-2-carboxamide]: 143 nM. On the same count and under the same terms, as for `CSc1ncc(Cc2cc(C(=O)N[C@H]3CCOC[C@@H]3O)nc3ccccc23)cn1` [Example 14, N-[(3R,4S)-3-Hydroxytetrahydro-2H-pyran-4-yl]-4-{[2-(methylsulfanyl)pyrimidin-5-yl]methyl}quinoline-2-carboxamide], the figure is 316 nM; as for `CCOc1ccc(Cc2cc(C(=O)N[C@H]3CCOC[C@@H]3O)nc3ccccc23)cn1` [Example 12, 4-[(6-Ethoxypyridin-3-yl)methyl]-N-[(3R,4S)-3-hydroxytetrahydro-2H-pyran-4-yl]quinoline-2-carboxamide], 60 nM; as for `COc1ccc(C(F)c2cc(C(=O)N[C@H]3CCOC[C@@H]3O)nc3c(OC)cccc23)cn1` (stereo partly drawn) [Example 18, 4-[Fluoro(6-methoxypyridin-3-yl)methyl]-N-[(3R,4S)-3-hydroxytetrahydro-2H-pyran-4-yl]-8-methoxyquinoline-2-carboxamide], 247 nM.
